Measured values published in US11369594B2, “Cytotoxic actin-targeting compounds” (priority 2017, dated 2022).
Entries after “also recorded” stand apart in the source; their conditions may differ.

Experiments:
[1] = tested on: F-actin in SKOV3 cells expressing LifeAct-GFP; experiment: Live cell confocal imaging of LifeAct-GFP reporter (F-actin disruption); assay type: cell-based; details: 0-2 hours
Protocol: To visualize effects of analogs on cellular F-actin dynamics, several cancer cell lines were transduced with a lentivirus expressing a green fluorescent protein (GFP) fusion with LifeAct, a 17 amino-acid protein containing the actin-binding domain of a yeast protein. To produce this lentivirus, 500,000 HEK293T cells were seeded on a 6-well plate coated with 0.01 mg/ml of poly-lysine solution. 24 hours later viral packing plasmids Pax2 (1 ug) and MD2G (0.5 ug) were mixed in serum free media with 1 ug of pLenti.PGK.LifeAct-GFP.W (Addgene Catalogue No. 51010), and 10 uL of Xtreme-Gene (Roche, Germany) were then added to the master mix. The mix was vortexed and incubated at room temperature for 15 minutes before being added in a drop-wise manner to HEK293T cells. After 24 hours, HCC1954, SKBR3 or SKOV3 cells were seeded in a 6-well plate and incubated at 37° C. for 24 hours. The virus-containing media from the HEK293T cells media was collected and filtered (0.45 μm). HCC1954, SKBR3 or SKOV3 cells were incubated with 0.5 mL virus-containing media, and incubated at 37° C. for 2-3 days. Efficiency of transduction was determined by visualizing GFP positive cells using fluorescence microscopy. […]
Disruption of filamentous actin (F-actin) in HER2 cancer cells was measured using live cell confocal imaging of LifeAct-GFP reporter. […]

[2] = tested on: SKOV3 (ovarian) cells; experiment: IncuCyte PI uptake assay of cytotoxicity; assay type: cell-based; details: 48 hours of treatment, compared to DMSO control
Protocol: The cytotoxicity of analogs was determined by using a PI uptake assay. HCC1954, SKBR3 or SKOV3 cells (2,000) were seeded in a 96-well plate. Treatments were prepared in 2% FBS containing media with 1 μM PI, and imaged using the IncuCyte Zoom Live Cell Analysis System equipped with a 10× objective. Phase contrast and fluorescent images were acquired every 2-3 hours for 48 hours. Several parameters are available upon analysis utilizing the IncuCyte Zoom Analysis tools including number of PI positive cells and cell confluence. See FIG. 8 for plots of SKOV3 cell analog cytotoxicity and HCC1954 cell analog cytotoxicity for specified treatments.
Cytotoxicity effects of Myc B and analogs in HER2 cancer cells was studied. Specifically, SKOV3 (ovarian) and HCC1954 (breast) cells were incubated with DMSO (1%) or analog (12.5-50 μM) in DMEM supplemented with 2% FBS and PI (1 μM) using an IncuCyte Zoom Live Cell Analysis System for 48 hours. As shown in FIGS. 10A-Q, graphs depict the number of PI positive for SKOV3 cells (left) and HCC1954 cells (right) over 48 hours of treatment with DMSO or indicated analog (12.5-50 μM).

[3] = tested on: HER2 cancer cells SKOV3 (ovarian) and HCC1954 (breast); experiment: Growth suppression of HER2 cancer cells (cell confluence change, live cell imaging); assay type: cell-based; details: analogs 25 μM, Lapatinib 25 μM as comparator
Protocol: Growth suppression of HER2 cancer cells by select Myc B analogs was studied to determine rate of growth of HER2 cancer cells (SKOV3 (ovarian) and HCC1954 (breast)) as measured using a live cell imaging system. Findings are shown in FIGS. 9A and 9B, SKOV3 Ovarian cancer and HCC1954 Breast cancer cells were incubated with DMSO (1%), Myc B (25 nM), or the indicated analogs (25 μM), or with HER2 inhibitor Lapatinib (25 μM) in DMEM supplemented with 2% FBS and PI (1 μM) using an IncuCyte Zoom Live Cell Analysis System for 48 hours. Graphs depict the percent change in confluence at 48 hours compared to time zero (significant differences from DMSO *p<0.05, **p<0.01, ***p<0.001).

[4] = tested on: F-actin in SKOV3 cells; experiment: F-actin staining (TRITC-Phalloidin) fluorescence micrographs; assay type: cell-based; details: 2 or 20 hours
Protocol: Referring to FIG. 12, representative fluorescence micrographs are shown of SKOV3 cells treated with DMSO (1%), Myc B (25 nM), or indicated analog (10 μM) for 2 or 20 hours prior to staining of F-actin (TRITC-Phalloidin). the effects of Myc B analog treatments over 20 hours are compared with DMSO and Myc B in HER2 cancer cells. […] As described in Example 37, disruption of filamentous actin (F-actin) in HER2 cancer cells was measured using live cell confocal imaging of LifeAct-GFP reporter. The LifeAct-GFP signal in DMSO control conditions indicates the localization of F-actin structures in SKOV3 cells. […] Compounds described herein can be used to treat such actin-related problems because of their efficacy in disrupting actin, as shown by studies described in the Examples and Figures herein.

[5] = tested on: HER2+ SKOV3 subcutaneous tumor xenograft; experiment: SKOV3 subcutaneous tumor xenograft study; assay type: in vivo, Rag2−/−:IL2Rγc−/− mice
Protocol: Referring to FIGS. 3A and 3B, a proof-of-principle study of the anticancer effects of MycB in a SKOV3 tumor xenograft model. […] Following the detection of palpable tumors, mice were randomized between vehicle control (DMSO), MycB (100 ng, intratumoral), TZ (50 μg, intraperitoneal), or both MycB and TZ (same doses/delivery) twice weekly until endpoint was reached (n=6/group; significant differences between treatment groups based on ANOVA are indicated by *P<0.05, **** P<0.0001).
The anti-tumor effects of MycB analogs are also expected to extend to other cancer types with selection of appropriate antibodies for these tumor types with novel ADC formulations.

[6] = tested on: HER2+ cell migration and invasion (SKOV3 cells); experiment: Cell migration and invasion assays (IncuCyte scratch wound, spheroid reattachment); assay type: cell-based; details: sub-lethal doses (low nM)
Protocol: Effects of analogs on cellular motility including invasion and migration were evaluated using the IncuCyte Live Cell System. 25,000 SKOV3 cells were plated on a 96-well ImageLock coated with 10 μg/ml of human fibronectin. Once the cells reached approximately 90% confluence a scratch/wound is induced using the IncuCyte Woundmaker (a 96-pin would making tool). The cells were then rinsed with sterile PBS then media, with or without treatment was added. To evaluate invasion 5% Matrigel was added. The plate was then inserted into the IncuCyte Zoom Live Cell Analysis System and imaged at 10× magnification every 2-3 hours following until wound closure or 48 hours.
The percentage of wound confluence, for migration, or would density, for invasion, was determined through the IncuCyte ZOOM Scratch Wound Analysis tool adjusted to cell line dependent processing definitions. See FIGS. 5 to 6 for images and graphical results.
A three-dimensional (3D) spheroid reattachment assay was performed to further evaluate analog effects on migration and invasion. A round bottom 96-well was coated with polyhydroxyehylmethacrylate (poly-hema) to create a non-adhesive conditions upon which cancer cells can form a 3D spheroid. […]
The percentage of migration/invasion was calculated using ImageJ (NIH) by measuring the area of migration or invasion and subtracting the intial size of the spheroid. […]

[7] = tested on: SKBR3, MDA-MB-453 and SKOV3 cells; experiment: Cell viability, Trypan blue exclusion assay; assay type: cell-based; details: multiple cancer cell lines
Protocol: Referring to FIG. 1A-C, the cytotoxicity of MycB on HER2+ breast and ovarian cancer cells was measured. Specifically, data is provided regarding the percentage of viable cells following treatment with MycB at 0-200 nM concentrations for 48 hours using SKBR3, MDA-MB-453 and SKOV3 cells. Cell viability was determined using Trypan blue exclusion assay (both unstained and stained cells were counted on a hemocytometer; values are mean±SEM of triplicate experiments).

## CCCO[C@H](CC)C[C@H](OC)[C@@H](C)CC[C@@H](OC(=O)C(C)C)[C@H](C)[C@H](OC)[C@H](C)/C=C/N(C)C=O [4f]
[1]; analogs 10 μM
  F-actin structures (LifeAct-GFP signal): limited effects at early time points
[2]
  Cytotoxicity: number of PI positive cells (PI uptake): significant cytoxicity response
[3]
  Growth suppression: percent change in confluence at 48 hours compared to time zero: potent analog was seen in 4f (2534), with comparable effects of the HER2 inhibitor Lapatinib

## CCC(=O)O[C@H](CC)C[C@H](OC)[C@@H](C)CC[C@@H](OC(=O)C(C)C)[C@H](C)[C@H](OC)[C@H](C)/C=C/N(C)C=O [4g]
[4]; analogs 10 μM
  Localization of endogenous F-actin (TRITC-Phalloidin): most highly disruptive of F-actin

## CCC(=O)O[C@H](CC)C[C@H](OC)[C@@H](C)CC[C@@H](OC(=O)[C@@H](C)OC)[C@H](C)[C@H](OC)[C@H](C)/C=C/N(C)C=O [4h]
[4]; analogs 10 μM
  Localization of endogenous F-actin (TRITC-Phalloidin): most highly disruptive of F-actin

## COC[C@@H](OC)C(=O)O[C@H](CC[C@H](C)[C@@H](C[C@@H]1OC(=O)C[C@@H](O)C/C=C/C(=O)[C@H](C)[C@H](OC)c2coc(n2)-c2coc(n2)-c2coc(n2)/C=C/C[C@H](OC)[C@H]1C)OC)[C@H](C)[C@H](OC(C)=O)[C@H](C)/C=C/N(C)C=O [MycB, Mycalolide B]
[5]; MycB 100 ng intratumoral in combination with TZ 50 μg intraperitoneal, twice weekly
  Growth of SKOV3 tumors (tumor volume and mass): reduced growth of SKOV3 tumors; also recorded: potential improvement when combined with TZ (Herceptin) on limiting tumor growth and metastasis
[5]; MycB alone, 100 ng intratumoral twice weekly
  Growth of SKOV3 tumors (tumor volume and mass): reduced growth of SKOV3 tumors; also recorded: anti-tumor effects of MycB on tumor volume and mass were demonstrated
[1]; Myc B 25 nM
  F-actin structures (LifeAct-GFP signal): time-dependent collapse of F-actin into large aggregates near the cell periphery
[2]
  Cytotoxicity: number of PI positive cells (PI uptake): significant increase in PI uptake
[4]; Myc B 25 nM
  Localization of endogenous F-actin (TRITC-Phalloidin): disruption of F-actin at the cell periphery and collapse into large aggregates in the cytoplasm of the cells
[6]
  Inhibition of cell motility and invasiveness: significant inhibition of cell motility and invasiveness
[7]
  Cytotoxicity in cancer cell lines: cytotoxicity in multiple cancer cell lines
